The subject of series [1] is middle cerebral artery occlusion model rats. As to the kind of experiment: Neuroprotective effect in middle cerebral artery occlusion model (MCAo), TTC staining of brain slices. The format is in vivo, Sprague-Dawley (SD) rats. The note with it: intravenous right after ischemia induction: Clinoleic20% 200 mg/kg, SMOFlipid20% 500 mg/kg, oleic acid 100 mg/kg, sodium oleate solution 3 mg/kg, TTC staining 24 hours after reperfusion.
Procedure: 8 week-old adult male Sprague-Dawley (SD) rats, obtained from Samtako (Korea), weighing 300 g were kept in an environment to adapt to the experimental environment while providing enough feed and water. After one week of adaptation period, the animals were used for the following experiments.
In detail, a nylon suture (4-0, 22 mm) was prepared by silicone coating about 5-8 mm of the end of the suture to have 0.36 mm of diameter, and was used for experiment. The rats prepared in Experimental Example 1.1 were anesthetized with 5% of isoflurane in a mixture of gas (i.e. 70% N2O and 30% O2). A syringe was inserted in one side for blood collection and a probe was inserted in the other side to measure blood pressure. Then the blood glucose level and the blood gas level in the collected blood were measured.
Through midline neck incision, right carotid artery and external carotid artery (ECA), which are branches of external carotid artery, were separated. […]
24 hours after the reperfusion, the animals were sacrificed by cervical spine dislocation. […] The files were stored in a computer, and the infarct area (%) in each tissue slice was calculated according to the following equation 1 by using an analysis program (i.e. Optimas 6.5, Bioscan). The adjusted volume of the infarct area was calculated through following Equation 2. […]

The test system is the same in series [2]. In words: Safety evaluation: death rate of experimental animals in the middle cerebral artery occlusion model. The format is in vivo, Sprague-Dawley (SD) rats. The note with it: MCAo rats, from the time of administration until sacrifice; intravenous: oleic acid 100 mg/kg, sodium oleate solution 3 mg/kg, Clinoleic20% 200 mg/kg, SMOFlipid20% 500 mg/kg. As to the method: Right after degenerative brain disease induction, death rate was calculated by counting number of dead animals in every group from the time of administration until they were sacrificed.

Series [3] deals with erythroclasis (hemolysis). The note with it: cited from earlier work.
Series [4] deals with transient local cerebral ischemia rat model. The note with it: cited from earlier work.

In the case of `CCCCCCCC/C=C\CCCCCCCC(=O)O` [Oleic Acid, oleic acid], the “TTC-unstained area (neuronal cell death) of brain slices compared to the control group” value in series [1] was “less TTC-unstained area”. Further, in series [2], the “Death Rate (%)” value is recorded as 18.1% and the “Number of Dead Animals” value is 21. The “erythroclasis (hemolysis) in an in vitro test” value in series [3] was “incurs erythroclasis (hemolysis)”. The “protective / neuroprotective efficacy” value in series [4] was “superior neuroprotective efficacy”.

Turning to `CCCCCCCC/C=C\CCCCCCCC(=O)[O-].[Na+]` [Sodium Oleate, sodium oleate], the “TTC-unstained area (neuronal cell death) of brain slices compared to the control group” value in series [1] is “less TTC-unstained area”. For the same compound, in series [2], the “Death Rate (%)” value is 21.6% and the “Number of Dead Animals” value is 8.

Source of the values: patent US11617774B2, “Composition for preventing or treating stroke or degenerative brain disease” (UNIVERSITY-INDUSTRY COOPERATION GROUP OF KYUNG HEE …, priority 2013, dated 2023).
